According to US9044424B2, “Methods of regulating glucose metabolism, and reagents related thereto” (Trustees of Tufts College, priority 1998, dated 2015):
Where two headings read alike, the source gives them in different places.

Tests used:
DP-IV = DP-IV (Homo sapiens, UniProt P27487); assay: DP-IV inhibition / affinity
Protocol: As an illustrative embodiment, the ability of a test agent to inhibit DPIV can be assessed using a colorimetric or fluorometric substrate, such as Ala-Pro-paranitroanilide.
An illustrative reaction mixture includes 50 μM sodium Hepes (pH7.8), 10 μM Ala-Pro-paranitroanilide, 6 milliunits of DPIV, and 2% (v/v) dimethylformamide in a total volume of 1.0 mL. The reaction is initiated by addition of enzyme, and formation of reaction product (paranitroanilide) in the presence and absence of a test compound can be detected photometrically, e.g., at 410 nm.

mice = assay: Oral glucose tolerance test in mice; assay type: in vivo; settings: for glucose levels in blood / glucose control: single injection alone, one hour prior to oral glucose challenge, FIG. 3; for response to a sub-therapeutic dose of GLP-1: single injection, with 8 μg GLP-1
Protocol: The first two experiments are “acute” experiments wherein the mice were injected with a single dose of Pro-boro-pro. In the first set of experiments mice were injected with 150 μg of Pro-boro-pro (PBP-1) and then subjected to an oral glucose tolerance test within an hour. […] In a second set of experiments mice were injected with Pro-boro-pro (PBP-2) one hour prior to an oral glucose challenge test. FIG. 3 presents the results of these experiments. Each set of experiments was also performed using saline as a control.
The third set of experiments were “chronic” experiments, wherein the mice were injected twice daily with Pro-boro-pro for four days, followed by an oral glucose challenge.

[1] = cited from earlier work
[2] = chronic (>5 days) treatment alone

Chain of DP-IV (P27487 whole entry): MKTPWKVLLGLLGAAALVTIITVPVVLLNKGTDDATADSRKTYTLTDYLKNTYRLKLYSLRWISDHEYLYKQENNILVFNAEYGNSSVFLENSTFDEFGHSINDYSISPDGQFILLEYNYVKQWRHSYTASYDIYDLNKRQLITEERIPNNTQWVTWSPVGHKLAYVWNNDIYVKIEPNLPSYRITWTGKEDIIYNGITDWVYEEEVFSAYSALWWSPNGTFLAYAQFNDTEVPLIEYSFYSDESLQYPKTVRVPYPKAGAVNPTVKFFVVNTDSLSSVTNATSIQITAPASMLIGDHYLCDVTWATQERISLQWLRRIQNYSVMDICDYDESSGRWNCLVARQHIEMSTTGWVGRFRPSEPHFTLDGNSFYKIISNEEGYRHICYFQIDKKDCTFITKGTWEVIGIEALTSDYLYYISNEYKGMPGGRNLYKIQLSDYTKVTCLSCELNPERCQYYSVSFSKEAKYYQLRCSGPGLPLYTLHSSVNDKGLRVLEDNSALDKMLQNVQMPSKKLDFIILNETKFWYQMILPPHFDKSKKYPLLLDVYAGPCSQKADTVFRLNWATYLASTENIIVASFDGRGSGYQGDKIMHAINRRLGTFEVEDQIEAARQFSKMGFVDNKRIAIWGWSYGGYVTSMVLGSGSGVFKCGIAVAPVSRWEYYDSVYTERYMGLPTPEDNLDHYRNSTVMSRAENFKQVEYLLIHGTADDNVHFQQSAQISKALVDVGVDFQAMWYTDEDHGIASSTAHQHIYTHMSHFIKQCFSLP

For L-Ala-L-boroPro-pinacol, the “extent of DP-IV inhibition” value (DP-IV; silica gel fractions compared at equal concentrations) was “inhibits DP-IV to a greater extent than later fractions”.
In the case of `O=C(C1CCCN1)N1CCCC1B(O)O` (stereo not shown) [Pro-boro-pro], the fasting blood sugars (mice; [2]) was “lowers”, the “glycemic excursion to oral glucose challenge” value (mice; [2]) was “lowers” and the blood sugar levels (mice; chronic: injected twice daily for four days, then oral glucose challenge, FIG. 4) was “lowering of the blood sugar levels”. For the same compound, the blood sugar (mice; oral glucose challenge in mice, overall statement) was “clearly lowers blood sugar”, the “glucose levels in blood (glucose tolerance curve)” value (mice; single injection 150 μg, oral glucose tolerance test within an hour, 8 μg GLP-1 five minutes prior to glucose, FIG. 2) was “improves glucose levels in blood” and the “glucose levels in blood / glucose control” value (mice) was “alone sufficient to improve glucose control”. For the same compound, the “glucose levels in blood / glucose control” value (mice; listed as PBP-2) was “improves glucose levels in blood”, the “response to a sub-therapeutic dose of GLP-1” value (mice; FIG. 2) was “potentiate the response to a subtherapeutic dose of GLP-1” and the “response to a sub-therapeutic dose of GLP-1” value (mice; FIG. 2, listed as PBP-1) was “potentiates the response to a sub-therapeutic dose of GLP-1”.
For glucagon-like peptide-1 [GLP-1], the “metabolite share of the increase in plasma immunoreactivity (COOH-terminal RIA)” value ([1]; thirty minutes after subcutaneous GLP-1, diabetic patients (n=8)) is given as 88.5+1.9% and the “metabolite share of the increase in plasma immunoreactivity (COOH-terminal RIA)” value ([1]; thirty minutes after subcutaneous GLP-1, healthy subjects (n=8)) is given as 78.4+3.2%.
In the case of `CC(NC(=O)OC(C)(C)C)C(=O)N1CCCC1B(O)O` (stereo not drawn) [Boc-blocked Ala-boroPro, Boc-Ala-boroPro], the “affinity for DP-IV” value (DP-IV) was “no affinity”.
